Laboratory results reported in patent publication US5834445A, “Process for preparing decolorized carotenoid-cyclodextrin complexes” (priority 1995, dated 1998).
“Also recorded” adds a separate entry of the source.

Tests used:
colon polyps = details: humans; cited from earlier work
colon tumors = details: animals; cited from earlier work
[1] = tested on: carcinogen-induced epidermoid carcinomas; details: in vivo; cited from earlier work
[2] = visual
Description: Creams containing cyclodextrin-complexed β carotene and uncomplexed β carotene were prepared by adding the respective carotene preparation to one or more of several different commercially available creams. The commercial creams used include LUBRIDERM, NOXZEMA, POND'S hand cream, POND'S Cold Cream, and NIVEA moisturizing cream. The amount of complex needed to achieve a β carotene content of 1% by weight was calculated using the measurement of percent loading for the particular complex, and this amount was added to the cream as purchased. Control samples contained 1% uncomplexed β carotene by weight of the cream.

[3] = Aqueous solution of carotenoid with cyclodextrin, visible precipitate; assay type: physicochemical
Description: Twenty milligrams of β carotene is mixed with eighty milligrams (abbreviated "mg" hereinafter) of β cyclodextrin. The mixture is then added to 0.5 milliliters (hereinafter abbreviated "ml") of a buffered saline solution, and thoroughly mixed.

[4] = Comparative solubility in skin cream with different solubilization mixtures; assay type: physicochemical; details: summary of Tables V and VI
Excerpt: The relative scale used was from 1 = completely nonsoluble, precipitate
formed, to 10 = completely soluble, no precipitate or suspension visible.
In all cases the carotene was mixed with Solvent #1 prior to mixing with
Solvent #2. This mixture was in turn combined with LUBRIDERM skin cream,

[5] = Color matching with COLOR-AID swatchbook; assay type: physicochemical; details: 1% β carotene, ⊕ darker, ⊖ paler than swatch
Description: Creams containing cyclodextrin-complexed β carotene and uncomplexed β carotene were prepared by adding the respective carotene preparation to one or more of several different commercially available creams. The commercial creams used include LUBRIDERM, NOXZEMA, POND'S hand cream, POND'S Cold Cream, and NIVEA moisturizing cream. The amount of complex needed to achieve a β carotene content of 1% by weight was calculated using the measurement of percent loading for the particular complex, and this amount was added to the cream as purchased. Control samples contained 1% uncomplexed β carotene by weight of the cream. […] Since the amount of β carotene by weight is the same in all the cream samples, including those to which β carotene was added in pure form and those to which the β carotene was added in the form of β carotene/cyclodextrin complex, differences in color intensity and hue are not ascribable to a simple dilution effect.
The color differences among complexed and uncomplexed β carotene and among creams containing complexed vs. uncomplexed β carotene are here characterized according to the COLOR-AID swatchbook.
In the present case, color matching was performed under fluorescent lighting of the full-spectrum type.

[6] = Color and texture of prepared compositions and creams; assay type: physicochemical
Description: 50 milligrams of β carotene were added to 50 milligrams of vitamin E (as DL-alpha tocopherol acid succinate). To this mixture were added 50 milligrams of β cyclodextrin and 50 milligrams of gelatin derived from bovine skin (bloom 225, type III). […] Next, 1 milliliter of D20 and 1 milliliter of glycerine were added, in that order.
The mixture #1 was then added to 1 milliter of a commercial skin cream, LUBRIDERM, which contains water, mineral oil, petrolatum, sorbitol, lanolin, lanolin alcohol, triethanolamine, cetyl alcohol, butylparaben, methylparaben, propylparaben, and sodium chloride, in order of descending amount.
50 milligrams of β carotene were mixed thoroughly with 50 milligrams of β cyclodextrin. One milliliter of distilled H2 O (d-H2 O) was added to the mixture of carotene and cyclodextrin. […] Fifty milligrams of Vitamin E succinate (crystalline) were then added. […] Next, 1 milliliter of glycerine was added, followed by 150 milligrams of gelatin. […] The same skin cream base was added to composition 2 as in example 1, in the same amount.
Glycerine (1 milliliter) and/or gelatin (50 mg) were added to the mixture, followed by 1 milliliter of LUBRIDERM brand skin cream.

[7] = Absorbance loss at 450 nm of β-carotene/alpha-cyclodextrin with cysteine after 21 days; assay type: physicochemical; details: After 21 days at ambient conditions; UV-Vis
Description: As further described below, various amounts of cysteine were used. Spectroscopic measurements were then made of Samples C, D, E, F (Table VIII), and of a sample consisting of uncomplexed beta-carotene, which was used as a control group.
The results were measured as percent of absorbance loss at 450 nm. The percent of absorbance loss measures the intensity of absorbance. In turn, intensity of absorbance is directly correlated to oxidation and decomposition of beta-carotene.

[8] = tested on: DMBA induced squamous cell carcinoma; details: topical […] solution in mineral oil; cited from earlier work
[9] = Color matching with COLORCURVE swatches; assay type: physicochemical; details: cream A, same set of samples as Table I
Excerpt: In the COLORCURVE system, colors are scaled on a 3-dimensional scheme. One dimension, which for convenience here will be termed the vertical dimension, is value, defined more or less according to Munsell (op cit). The two dimensions of each plane are hue and intensity or saturation. The "hues" of the COLORCURVE system are the four primary colors of visible light: red, yellow, green and blue. Like the COLOR-AID system, the COLORCURVE system provides coded swatches for color matching. Each coded color in the COLORCURVE system is defined by light reflectance values, tristimulus values, and L*a*b* values, these being colorimetric parameters known in the art.
In the COLORCURVE code, the first number specifies the level, that is, the value of the equivalent gray tone; the level numbers increase from darker values to lighter values. For example, Level 55 colors are paler than Level 50 colors, which in turn are paler than Level 45 colors. The second and third codes each consist of a letter followed by a single-digit number. The letter identifies one of four hues (R-red, Y-yellow, B-blue, and G-green, these being the four "primary" colors in light), and the number describes the intensity of the hue. Thus, L40 R3 Y2 specifies value Level 40, red hue saturation level of 3, and yellow hue saturation level of 2 (where increasing numbers from 1 to 8 designate increasing saturation levels). […]

human oral cancer cells = details: in vitro; cited from earlier work
oral carcinoma cell = details: in at least some cases; cited from earlier work

## CC1=C(CC(=O)O)c2cc(F)ccc2/C1=C\c1ccc([S+](C)[O-])cc1 (stereo not drawn) [Sulindac, cis-5-fluoro-2-methyl-1-[p-(methyl-sulfinyl)benzylidene]indene-3-acetic acid]
Colon polyps
  regression of colon polyps: cause regression of colon polyps in humans
Colon tumors
  growth of colon tumors: inhibits growth of colon tumors in animals

## Cc1c(C)c2c(c(C)c1O)CCC(C)(CCCC(C)CCCC(C)CCCC(C)C)O2 (stereo not drawn) [Vitamin E (alpha tocopherol), alpha tocopherol]
[1]
  inhibition of development of carcinogen-induced epidermoid carcinomas: inhibit the development of carcinogen-induced epidermoid carcinomas, and in some cases to completely prevent their growth

## CC1=C(/C=C/C(C)=C/C=C/C(C)=C/C=C/C=C(C)/C=C/C=C(C)/C=C/C2=C(C)CCCC2(C)C)C(C)(C)CCC1 [β-carotene]
[2]
  color of powder: deep, red to orange-red color
[3]; 20 mg β carotene with 80 mg β cyclodextrin, 0.5 ml buffered saline into 100 ml distilled water
  visible precipitate in aqueous solution: clear solution with no visible precipitate
[3]; lesser amount or no cyclodextrin
  visible precipitate in aqueous solution: red-brown precipitate
[4]
  effect of mixing with βCD on solubility in LUBRIDERM skin cream: significantly increases its solubility
[5]
  COLOR-AID code, LUBRIDERM: RO-P2-1⊕
[5]; PONDS hand/skin cream
  COLOR-AID code, PONDS: O-S1⊕
[6]; final cream
  texture of composition or cream: does not produce undesirable color changes or grainy textures
[6]; uncomplexed β carotene
  appearance of skin cream with β carotene (previous attempts): unpleasant mustard-like appearance
[7]
  % Abs. Loss (at 450 nm): 42%
[8]
  number and sizes of tumors: reduced the number and sizes of tumors
[9]
  COLORCURVE code, A: L50 R3YS; also recorded: L55 R3YS
Human oral cancer cells
  inhibition of human oral cancer cells: inhibit human oral cancer cells in vitro
  selective killing of tumor cells over normal cells: preferentially kill tumor cells over normal (non-tumor) cells
Oral carcinoma cell
  tumor inhibitory effects vs Vitamin A: superior to Vitamin A in its tumor inhibitory effects
